Assay results published in US5945413A, “Aspartyl protease inhibitors” (Vertex Pharmaceuticals Incorporated, priority 1996, dated 1999).

The molecules below were run against HIV-1 protease (Human immunodeficiency virus type 1 group M subtype B, UniProt P04585) (assay: inhibition constants against HIV-1 protease (method of Pennington et al.)). Details: not given.
Format: biochemical
Text: We have measured the inhibition constants of each compound against HIV-1 protease using the method described essentially by M. W. Pennington et al., Peptides 1990, Gimet, E. and D. Andrew, Eds., Escom, Leiden, Netherlands (1990); and the method described essentially by Partaledis et al., J. Virol., 69, pp. 5228-35 (1995).
Using the method described by Pennington et al. (supra), we obtained inhibition constants for the following compounds of this invention: […]

| SMILES | Ki [nM] |
| --- | --- |
| COc1ccc(S(=O)(=O)N(CC(O)CN2C(=O)COC[C@@H]2Cc2ccccc2)CC2CCCC2)cc1 (stereo partly shown) [Compound 28] | 1400 |
| COc1ccc(S(=O)(=O)N(CC(O)CN2C(=O)C(N)C[C@@H]2Cc2ccccc2)CC2CCCC2)cc1 (stereo partly shown) [Compound 21] | > 20000 |
| COc1ccc(S(=O)(=O)N(CC(O)CN2C(=O)C(CC3COC(=O)O3)C[C@@H]2Cc2ccccc2)CC2CCCC2)cc1 (stereo partly shown) [Compound 26] | 58 |
| COc1ccc(S(=O)(=O)N(CC(O)CN2C(=O)C(C)(C)NC[C@@H]2Cc2ccccc2)CC2CCCC2)cc1 (stereo partly shown) [Compound 31] | 390 |
| CC(C)CN1CC(Cc2ccccc2)N(CC(O)CN(CC2CCCC2)S(=O)(=O)c2cccc(N)c2)C1=O (stereo not shown) [Compound 12] | > 10000 |
| COc1ccc(S(=O)(=O)N(CC(O)CN2C(=O)C(CC(O)CO)C[C@@H]2Cc2ccccc2)CC2CCCC2)cc1 (stereo partly shown) [Compound 23] | 70 |
| C=CCN1C[C@H](Cc2ccccc2)N(C[C@H](O)CN(CC2CCCC2)S(=O)(=O)c2ccc(OC)cc2)C1=O [Compound 1] | 160 |
| COc1ccc(S(=O)(=O)N(CC(O)CN2C(=O)C3(CCCC3)NC[C@@H]2Cc2ccccc2)CC2CCCC2)cc1 (stereo partly shown) [Compound 32] | 160 |
| COc1ccc(S(=O)(=O)N(CC(O)CN2[C@@H](Cc3ccccc3)CCS2(=O)=O)CC2CCCC2)cc1 (stereo partly shown) [Compound 11] | > 10000 |
| COC(=O)C1NC[C@H](Cc2ccccc2)N(CC(O)CN(CC2CCCC2)S(=O)(=O)c2ccc(OC)cc2)C1=O (stereo partly shown) [Compound 33] | 1100 |
| COc1ccc(S(=O)(=O)N(CC(O)CN2C(=O)N(C)C[C@@H]2Cc2ccccc2)CC2CCCC2)cc1 (stereo partly shown) [Compound 13] | 225 |
| COc1ccc(S(=O)(=O)N(CC(O)CN2C(=O)C(NC(C)=O)C[C@@H]2Cc2ccccc2)CC2CCCC2)cc1 (stereo partly shown) [Compound 22] | 600 |
| COc1ccc(S(=O)(=O)N(CC(O)CN2C(=O)C(C)(C)C[C@@H]2Cc2ccccc2)CC2CCCC2)cc1 (stereo partly shown) [Compound 17] | 115 |
| COc1ccc(S(=O)(=O)N(CC2CCCC2)C[C@@H](O)CN2C(=O)C3(CCCCC3)OC[C@@H]2Cc2ccccc2)cc1 [Compound 47] | 20 |
| COc1ccc(S(=O)(=O)N(CC(O)CN2C(=O)[C@H](C)NC[C@@H]2Cc2ccccc2)CC2CCCC2)cc1 (stereo partly shown) [Compound 30] | > 15000 |
| COc1ccc(S(=O)(=O)N(CC(O)CN2C(=O)CC(O)[C@@H]2Cc2ccccc2)CC2CCCC2)cc1 (stereo partly shown) [Compound 19] | 3000 |
| COc1ccc(S(=O)(=O)N(CC2CCCC2)C[C@@H](O)CN2C(=O)C(Cc3ccccc3)C[C@@H]2Cc2ccccc2)cc1 (stereo partly shown) [Compound 20] | 1.5 |
| C=CCC1C[C@H](Cc2ccccc2)N(C[C@H](O)CN(CC2CCCC2)S(=O)(=O)c2ccc(OC)cc2)C1=O (stereo partly shown) [Compound 7] | 9 |
| COc1ccc(S(=O)(=O)N(CC(O)CN2C(=O)CNC[C@@H]2Cc2ccccc2)CC2CCCC2)cc1 (stereo partly shown) [Compound 27] | 3000 |
| COc1ccc(S(=O)(=O)N(CC(O)CN2C(=O)C(CC3COCO3)C[C@@H]2Cc2ccccc2)CC2CCCC2)cc1 (stereo partly shown) [Compound 24] | 350 |
| COc1ccc(S(=O)(=O)N(CC(O)CN2C(=O)C(CC(COC(C)=O)OC(C)=O)C[C@@H]2Cc2ccccc2)CC2CCCC2)cc1 (stereo partly shown) [Compound 25] | 83 |
| COc1ccc(S(=O)(=O)N(CC2CCCC2)C[C@@H](O)CN2C(=O)C(C)C[C@@H]2Cc2ccccc2)cc1 (stereo partly shown) [Compound 16] | 56 |
| COc1ccc(S(=O)(=O)N(CC(O)CN2[C@@H](Cc3ccccc3)CN(C)S2(=O)=O)CC2CCCC2)cc1 (stereo partly shown) [Compound 10] | > 10000 |
| COC(=O)C1(C)NC[C@H](Cc2ccccc2)N(CC(O)CN(CC2CCCC2)S(=O)(=O)c2ccc(OC)cc2)C1=O (stereo partly shown) [Compound 34] | 950 |
| CCC1C[C@H](Cc2ccccc2)N(CC(O)CN(CC2CCCC2)S(=O)(=O)c2ccc(OC)cc2)C1=O (stereo partly shown) [Compound 18] | 15 |
| COc1ccc(S(=O)(=O)N(CC(O)CN2C(=O)CC[C@@H]2Cc2ccccc2)CC2CCCC2)cc1 (single isomer, unassigned) [Compound 15] | 550 |
| COc1ccc(S(=O)(=O)N(CC(O)CN2C(=O)N(Cc3ccccc3)C[C@@H]2Cc2ccccc2)CC2CCCC2)cc1 (stereo partly shown) [Compound 14] | 16 |

Same assay, conditions: Inhibition constant measured at pH 6.0

| SMILES | Ki [nM] |
| --- | --- |
| CCCC1CC(Cc2ccccc2)N(CC(=O)C(=O)N2CSCC2C(=O)NC(C)(C)C)C1=O (stereo not shown) [Compound 112] | 8600 |
| CC(C)(C)NC(=O)C1CSCN1C(=O)C(=O)CN1C(=O)CCC1Cc1ccccc1 (stereo not shown) [Compound 111] | > 10000 |
| CC(C)(C)NC(=O)C1CSCN1C(=O)C(=O)CN1C(=O)C(C)(C)NC[C@@H]1Cc1ccccc1 (stereo partly shown) [Compound 105] | > 10000 |
| CC(C)(C)NC(=O)C1C[C@@H]2CCCC[C@@H]2CN1CC(O)CN1[C@@H](Cc2ccccc2)CN(Cc2ccccc2)S1(=O)=O (stereo partly shown) [Compound 77] | 560 |
| C=CCN1CC(Cc2ccccc2)N(CC(O)CC(Cc2ccccc2)C(=O)NC2c3ccccc3CC2O)C1=O (stereo not shown) [Compound 78] | 10 |
| C=CCN1C[C@H](Cc2ccccc2)N(CC(O)CN2C[C@H]3CCCC[C@H]3CC2C(=O)NC(C)(C)C)C1=O (stereo partly shown) [Compound 2] | 180 |
| CC(C)(C)NC(=O)C1CSCN1C(=O)C(=O)CN1C(=O)C(Cc2ccccc2)CC1Cc1ccccc1 (stereo not shown) [Compound 109] | 250 |
| CC(C)(C)NC(=O)C1C[C@@H]2CCCC[C@@H]2CN1CC(O)CN1C(=O)C(C)(C)NC[C@@H]1Cc1ccccc1 (stereo partly shown) [Compound 5] | > 10000 |
| CC(C)(C)NC(=O)C1C[C@@H]2CCCC[C@@H]2CN1CC(O)CN1C(=O)N(Cc2ccccc2)C[C@@H]1Cc1ccccc1 (stereo partly shown) [Compound 76] | 250 |
| C=CCC1C[C@H](Cc2ccccc2)N(CC(O)CN2C[C@H]3CCCC[C@H]3CC2C(=O)NC(C)(C)C)C1=O (stereo partly shown) [Compound 8] | 5 |
| C=CCC1C[C@H](Cc2ccccc2)N(CC(O)CN2CCN(Cc3cccnc3)CC2C(=O)NC(C)(C)C)C1=O (stereo partly shown) [Compound 9] | 90 |
| CC(C)(C)NC(=O)C1CSCN1C(=O)C(O)CN1C(=O)C(Cc2ccccc2)CC1Cc1ccccc1 (stereo not shown) [Compound 102] | 1200 |
| C=CCN1C[C@H](Cc2ccccc2)N(CC(O)CN2CCN(Cc3cccnc3)CC2C(=O)NC(C)(C)C)C1=O (stereo partly shown) [Compound 3] | 1800 |
